Consider nine molecules from paper PMC5590477, “Biotinylated N-Acetyllactosamine- and N,N-Diacetyllactosamine-Based Oligosaccharides as Novel Ligands for Human Galectin-3” (Bioengineering, 2017).

Test [1] addresses T1, human His6Gal-3 (Homo sapiens, UniProt P17931).
T1 construct: made in house; host or cells: Escherichia coli Rosetta (DE3) pLysS
Nature of the test: ELISA-type binding of Gal-3 to immobilized glycans and neo-glycoproteins. The following applies: for Gal-3 binding to immobilized tetrasaccharide (in words): glycan (5 nmol) immobilized on aminoreactive surface; for selectivity for Gal-3 binding compared with Gal-1 (in words): immobilized glycans, 1 µM protein concentration. On the procedure: (§1) The synthesized glycans and neo-glycoproteins were analyzed for binding of Gal-3 and Gal-1 in 96-well microtiter plate formats. Glycans 11 and 12, as well as the corresponding LacNAc-LacNAc-linker-NH2 1a and LacdiNAc-LacNAc-linker-NH2 2a (deprotected forms of 1 and 2) were immobilized via the amino group in aminoreactive microtiter plates (Immobilizer Amino, Nunc, Wiesbaden, Germany). The immobilization of 5 nmol glycan in sodium carbonate buffer (100 mM, pH 9.6) was done overnight. For immobilizing neo-glycoproteins, 5 pmol protein were incubated in PBS (pH 7.5) in MaxiSorp microtiter plates (Nunc) overnight. Wells were then washed with PBS-Tween (0.05% (v/v)) and blocked with 2% BSA in PBS followed by incubation for one hour with galectins diluted in EPBS. Incubation with anti-His6-peroxidase (Roche) was done subsequently. Microtiter plates were read out at 495 nm after conversion of OPD substrate (o-phenylenediamine, Dako, Hamburg, Germany). Measured data were analyzed using Sigma Plot (Systat software GmbH, Erkrath, Germany).
(In general: In an ELISA, binding on a coated surface is turned into a signal by an enzyme label.)

In a further test the target is T2, human His6Gal-1C2S (Homo sapiens, UniProt P09382, C3S).
T2 construct: made in house; host or cells: Escherichia coli Rosetta (DE3) pLysS
T2 sequence (P09382 whole entry C3S): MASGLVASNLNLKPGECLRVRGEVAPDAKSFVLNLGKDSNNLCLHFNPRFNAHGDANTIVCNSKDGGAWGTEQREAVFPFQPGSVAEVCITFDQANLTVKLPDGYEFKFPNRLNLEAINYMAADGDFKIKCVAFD
Nature of the test: ELISA-type binding of Gal-1 to immobilized glycans and neo-glycoproteins. The settings on record: 1 µM Gal-1, immobilized ligand 5 pmol per well. The method, then: as §1

Test [2] deals with T1, human His6Gal-3. Nature of the test: Surface plasmon resonance with immobilized Gal-3. Type of test: binding. The following applies: SPR, ligand in flow (20 µL/min) over immobilized Gal-3, one concentration, fit with Scrubber2; read-out: Apparent KD. The method, then:
SPR spectroscopy was done with Reichert SR7500DC System (XanTec bioanalytics, Düsseldorf, Germany) and carboxymethyldextran hydrogel sensor chips complexed with Ni^2+ ions (200M, XanTec bioanalytics). These surfaces allow reversible immobilization of His6-tagged proteins. Human His6Gal-3 (5 pmol in EPBS) was immobilized on the sample channel with a flowrate of 10 µL/min after 5 mM NiCl2 solution was injected. The reference channel stayed untreated.
The binding experiments were carried out with a flow rate of 20 µL/min by injecting neo-glycoproteins 13a–f and 14a–f (2 pmol in PBS) and recently synthesized neo-glycoproteins 15a–f and 16a–f (2 pmol in PBS), as well as BSA and ASF as the control. The dissociation time was three minutes. Between the measurements, the surface was regenerated with 0.5 M Na EDTA (pH 8.5) to remove Ni^2+ together with Gal-3. Each cycle started with NiCl2 followed by Gal-3 application.
The measured data were subtracted by reference values and analyzed using Integrated SPRAutolink (Reichert technologies, Depew, NY, USA) and Scrubber2 (version 2.0c, BioLogic Software, Campbell ACT, Australia).

The target in test [3] is T1, human His6Gal-3. Put plainly: Competitive inhibition of Gal-3 binding to immobilized asialofetuin (ASF), ELISA-type. The following applies: for Relative Potency: from IC50, relative to free tetrasaccharide 6 (13 series) or 7 (14 series); for IC50: inhibition of Gal-3 binding to immobilized ASF (5 pmol), 1 h in PBS; for Relative Potency per Glycan: inhibitory potency per glycan, relative to 6 (13 series) or 7 (14 series). The method, then: Neo-glycoproteins 13b, 13d, 13e and 14b, 14d, 14e, as well as glycans 1, 2, 6 and 7 were used in a competitive inhibition assay. Asialofetuin (ASF, 5 pmol in PBS) as the standard glycoprotein was immobilized overnight in microtiter plates (MaxiSorp, Nunc). After blocking as described before, different concentrations of inhibitor and His6Gal-3 were simultaneously incubated for one hour in PBS. Residual bound galectin was detected as described above. Evaluation of the measured data was done using Sigma Plot. All assays were reproduced in at least three independent measurements.

Values joined by “and” are separate entries in the source; they are usually repeats but may differ in a detail not shown here. Identical values can stand only once.

T1 sequence (P17931 whole entry): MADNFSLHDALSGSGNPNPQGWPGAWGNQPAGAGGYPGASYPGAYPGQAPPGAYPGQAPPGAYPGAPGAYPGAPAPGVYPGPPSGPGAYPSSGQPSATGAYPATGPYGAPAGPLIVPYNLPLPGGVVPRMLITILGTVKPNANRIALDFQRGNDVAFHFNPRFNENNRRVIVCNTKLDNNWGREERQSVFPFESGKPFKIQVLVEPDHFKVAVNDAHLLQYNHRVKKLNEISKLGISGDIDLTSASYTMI

Consider “ASF: Asialofetuin, standard glycoprotein having nine N-glycosidic bound LacNAc units [reference compound]”, for which the “Binding signal Galectin-3” value in the test with human His6Gal-3 [1] (1 µM Gal-3, immobilized ligand 5 pmol per well) was 0.38 ± 0.10. The Kd with human His6Gal-3 [1] (Gal-3 concentration at half-maximal binding to immobilized ligand (5 pmol), one site saturation fit, read-out: Apparent Kd) was determined as 1.26 ± 0.25 µM; with human His6Gal-3 [2], 0.075 ± 0.002 µM. Besides, in the test with human His6Gal-3 [1] (from apparent Kd, in relation to ASF), the Relative Potency is on record as 1.00 ± 0.20. Besides, the “Relative Potency per Glycan” value in the test with human His6Gal-3 [1] (from apparent Kd, in relation to ASF, per glycan) was 0.11 ± 0.02. Further, in the test with human His6Gal-1C2S, the “Binding signal Galectin-1” value is reported as 0.40 ± 0.07.

Turning to `CC(=O)N[C@@H]1[C@@H](O)[C@H](O[C@@H]2O[C@H](CO)[C@H](O)[C@H](O[C@@H]3O[C@H](CO)[C@@H](O[C@@H]4O[C@H](CNNC(=O)CCCCCNC(=O)CCCC[C@@H]5SCC6NC(=O)NC65)[C@H](O)[C@H](O)[C@H]4NC(C)=O)[C@H](O)[C@H]3NC(C)=O)[C@H]2O)[C@@H](CO)O[C@H]1NC(=S)NCCN` (some centres unmarked) [Compound 9], on human His6Gal-3 [1], the “Gal-3 binding to immobilized tetrasaccharide (in words)” value is recorded as “highest binding” and the “selectivity for Gal-3 binding compared with Gal-1 (in words)” value was “high selectivity”.

`CC(=O)N[C@@H]1[C@@H](O)[C@H](O[C@@H]2O[C@H](CO)[C@H](O)[C@H](O[C@@H]3O[C@H](CO)[C@@H](O[C@@H]4O[C@H](CNNC(=O)CCCCCNC(=O)CCCC[C@@H]5SCC6NC(=O)NC65)[C@H](O)[C@H](O)[C@H]4O)[C@H](O)[C@H]3NC(C)=O)[C@H]2O)[C@@H](CO)O[C@H]1NC(=S)NCCNC(=O)OC(C)(C)C` (some centres unmarked) [Compound 6, 6-biotin LacNAc-LacNAc-linker-NH2-tBoc]: at human His6Gal-3 [3], the “Relative Potency” value stood at 1.0 ± 0.1; the IC50 is 14 µM and 14.8 µM; the “Relative Potency per Glycan” value amounted to 1.0 ± 0.1.

For “LacdiNAc-LacNAc-linker-NH2 [Compound 2a]”, the “Gal-3 binding to immobilized tetrasaccharide (in words)” value on human His6Gal-3 [1] is “essentially no binding”.

Regarding `CC(=O)N[C@@H]1[C@@H](O)[C@H](O[C@@H]2O[C@H](CO)[C@H](O)[C@H](O[C@@H]3O[C@H](CO)[C@@H](O[C@@H]4O[C@H](CNNC(=O)CCCCCNC(=O)CCCC[C@@H]5SCC6NC(=O)NC65)[C@H](O)[C@H](O)[C@H]4O)[C@H](O)[C@H]3NC(C)=O)[C@H]2O)[C@@H](CO)O[C@H]1NC(=S)NCCN` (some centres unmarked) [Compound 8], at human His6Gal-3 [1], the “Gal-3 binding to immobilized tetrasaccharide (in words)” value was “high binding signals” and the “selectivity for Gal-3 binding compared with Gal-1 (in words)” value is “high selectivity”.

Turning to LacNAc-LacNAc-linker-NH2 [Compound 1a], the “Gal-3 binding to immobilized tetrasaccharide (in words)” value on human His6Gal-3 [1] was “rather weak”.

As for `CC(=O)N[C@@H]1[C@@H](O)[C@H](O[C@@H]2O[C@H](CO)[C@H](O)[C@H](O[C@@H]3O[C@H](CO)[C@@H](O[C@@H]4O[C@H](CNNC(=O)CCCCCNC(=O)CCCC[C@@H]5SCC6NC(=O)NC65)[C@H](O)[C@H](O)[C@H]4NC(C)=O)[C@H](O)[C@H]3NC(C)=O)[C@H]2O)[C@@H](CO)O[C@H]1NC(=S)NCCNC(=O)OC(C)(C)C` (some centres unmarked) [Compound 7, 6-biotin LacdiNAc-LacNAc-linker-NH2-tBoc], on human His6Gal-3 [3], the “Relative Potency” value turned out to be 1.0 ± 0.2, the IC50 was 7.66 ± 1.24 µM and the “Relative Potency per Glycan” value is reported as 1.0 ± 0.2.

For the molecule `CC(=O)N[C@@H]1[C@@H](O)[C@H](O[C@@H]2O[C@H](CO)[C@H](O)[C@H](O[C@@H]3O[C@H](CO)[C@@H](O[C@@H]4O[C@H](CO)[C@H](O)[C@H](O)[C@H]4NC(C)=O)[C@H](O)[C@H]3NC(C)=O)[C@H]2O)[C@@H](CO)O[C@H]1NC(=S)NCCNC(=O)OC(C)(C)C` [Compound 2, LacdiNAc-LacNAc-linker-NH2-tBoc], on human His6Gal-3 [3], the IC50 is about 8 µM.

Regarding `CC(=O)N[C@@H]1[C@@H](O)[C@H](O[C@@H]2O[C@H](CO)[C@H](O)[C@H](O[C@@H]3O[C@H](CO)[C@@H](O[C@@H]4O[C@H](CO)[C@H](O)[C@H](O)[C@H]4O)[C@H](O)[C@H]3NC(C)=O)[C@H]2O)[C@@H](CO)O[C@H]1NC(=S)NCCNC(=O)OC(C)(C)C` [Compound 1, LacNAc-LacNAc-linker-NH2-tBoc], on human His6Gal-3 [3], the IC50 worked out at 14 µM.

As usually defined, the IC50 is the concentration that inhibits the measured activity by half. The low end stands for inhibition by little substance, the high end for a need for much substance.
